Laboratory results from PMC11838108, “Screening and evaluation of novel DPP-IV inhibitory peptides in goat milk based on molecular docking and molecular dynamics simulation” (Food Chemistry: X, 2025).
Like-named read-outs stand apart in the source and are kept apart here. Where no end group is shown, it is not given here.

What was measured:
[1] = molecular target: angiotensin-converting enzyme (ACE); conditions: ref Chen, Yu, Wu, & He, 2022, read-out: ACE inhibitory IC50; cited from earlier work
DPP-IV [2] = molecular target: T1, DPP-IV (Homo sapiens, UniProt P27487); experiment: DPP-IV inhibition by the peptides (Gly-Pro-pNA substrate); type: biochemical; conditions: Gly-Pro-pNA 0.2 mM, DPP-IV 0.0025 U/mL, 60 min; read-out: DPP-IV inhibitory activity IC50
T1 sequence (P27487 whole entry): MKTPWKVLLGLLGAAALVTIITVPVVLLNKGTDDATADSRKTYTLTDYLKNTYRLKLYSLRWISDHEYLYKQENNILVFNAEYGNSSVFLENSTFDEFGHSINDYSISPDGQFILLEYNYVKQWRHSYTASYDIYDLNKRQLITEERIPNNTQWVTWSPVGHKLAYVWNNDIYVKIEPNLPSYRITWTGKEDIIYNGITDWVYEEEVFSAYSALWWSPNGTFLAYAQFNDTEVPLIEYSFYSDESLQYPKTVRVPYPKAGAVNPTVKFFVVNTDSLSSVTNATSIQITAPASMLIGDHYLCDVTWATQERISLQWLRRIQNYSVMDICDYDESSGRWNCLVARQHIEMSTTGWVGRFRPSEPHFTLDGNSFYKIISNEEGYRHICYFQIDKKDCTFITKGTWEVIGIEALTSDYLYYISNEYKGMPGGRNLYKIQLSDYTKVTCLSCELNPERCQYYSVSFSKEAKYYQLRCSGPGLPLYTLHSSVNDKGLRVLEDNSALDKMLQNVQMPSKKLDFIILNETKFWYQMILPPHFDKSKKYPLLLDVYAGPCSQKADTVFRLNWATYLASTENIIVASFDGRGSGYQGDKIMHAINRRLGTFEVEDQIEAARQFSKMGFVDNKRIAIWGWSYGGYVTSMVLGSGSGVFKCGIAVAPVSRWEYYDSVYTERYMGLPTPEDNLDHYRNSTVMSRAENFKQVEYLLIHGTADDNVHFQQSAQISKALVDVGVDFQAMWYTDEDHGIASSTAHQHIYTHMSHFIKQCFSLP
Method: Peptides were prepared at various concentrations and transferred to a 96-well microplate containing Gly-Pro-pNA (0.2 mM). The microplates were then incubated for 5 min. Subsequently, DPP-IV (0.0025 U/mL) was added, followed by an additional incubation for 60 min. […] The peptides, Gly-Pro-pNA, and DPP-IV were then dissolved in Tris-HCl (0.1 M). Tris-HCl was used as the negative control with DPP-IV but without the peptides and as the blank control without the peptides or DPP-IV.

DPP-IV [3] = molecular target: T1, DPP-IV; experiment: DPP-IV inhibitory activity of peptides after in vitro simulated digestion; type: biochemical; conditions: GL-6 at 130.68 μM, LY-5 at 179.52 μM; after oral-gastric-intestinal digestion
Method: The method outlined by Nongonierma et al. ([Nongonierma & FitzGerald, 2013]) was adapted for our study. Peptides were prepared at various concentrations and transferred to a 96-well microplate containing Gly-Pro-pNA (0.2 mM). The microplates were then incubated for 5 min. Subsequently, DPP-IV (0.0025 U/mL) was added, followed by an additional incubation for 60 min. The absorbance of the mixture was measured at 405 nm. The peptides, Gly-Pro-pNA, and DPP-IV were then dissolved in Tris-HCl (0.1 M). Tris-HCl was used as the negative control with DPP-IV but without the peptides and as the blank control without the peptides or DPP-IV. Sitagliptin was used as the positive control instead of the peptides. The formula for calculating the inhibitory activity was as follows: DPP−IVinhibitory activity%=Ac−As/Ac−Ab×100 where absorbance values for the control, sample, and blank groups were designated as Ac, As, and Ab, respectively.
(§1) Based on the method described by Brodkorb et al. ([Brodkorb et al., 2019]), the following solutions were prepared: SSF, SGF, and SIF salt solutions, and salivary amylase, pepsin, and trypsin solutions.
Each peptide was dissolved at a concentration of 1 mg/mL, and 0.094 mL of SSF, 0.001 mL of CaCl2·2H2O (0.3 M), 0.025 mL of salivary amylase (75 U/mL), and 0.005 mL of H2O were sequentially added, for a total volume of 0.25 mL. […]

DPP-IV [4] = system: T2, DPP-IV; experiment: DPP-IV inhibitory activity in Caco-2 cells (Gly-Pro-AMC substrate); type: cell-based; conditions: peptide 2 mg/mL (GPFPLL 3.11 mM, LPYPY 3.07 mM), 24 h
T2 construct: endogenous in cells; host or cells: Caco-2 cells (Haixing Biological Technology Co., Ltd.)
Method: Caco-2 cells were seeded on a black 96-well plate at a density of 2 × 10^4 cells per well. Subsequently, the cells were treated with sample solutions at various concentrations and then further incubated for 24 h. After incubating, the peptide solutions and medium were removed from the wells, and 100 μL of the Gly-Pro-AMC substrate (50 μM) was added to each well and incubated for 10 min at 37 °C.

Caco-2 cells = experiment: Cytotoxicity assay (CCK-8); type: cell-based; conditions: 24 h, GL-6 0.195–3.11 mM, LY-5 0.193–3.07 mM
Method: A peptide cytotoxicity assay using Caco-2 cells was conducted based on the method outlined by Hao et al. with minor modifications ([Hao et al., 2020]). Initially, the cells were evenly seeded on a 96-well plate with 100 μL of 2 × 10^4 cells. After seeding, the plate was placed in a sterile and CO2-enriched incubator. After a 24-h incubation, the medium was removed, and the adherent cells were used for subsequent experiments. The peptides were dissolved in the basal medium (DMEM) and cells were treated with different concentrations of peptides. After a 24-h incubation period, 10 μL of CCK-8 was added to each well and incubated with the cells. The absorbance at 450 nm was recorded to determine cell viability.
The following formula was used to calculate cell viability, with cells cultured in the basal medium used as the control group for comparison: Cell viability%=Asample/Acontrol×100

[5] = Stability of peptides after in vitro simulated digestion (RP-HPLC); type: in vitro ADME; parameters: remaining at 2 min: dose or concentration left out as unconfirmed; conditions: for Oral-gastric digestion (stability of peptide): after oral and gastric phase; for Oral-gastric digestion (stability of peptide) / Oral-gastric-intestinal digestion (stability of peptide) / remaining at 2 min: RP-HPLC peak area; for Oral-gastric-intestinal digestion (stability of peptide): after oral, gastric and intestinal phase; for decrease of stability after intestinal digestion: relative to oral-gastric digestion; for remaining at 2 min: simulated salivary fluid (SSF) with salivary amylase, after oral phase, read-out: Oral digestion (stability of peptide)
Method: as §1
Each peptide was dissolved at a concentration of 1 mg/mL, and 0.094 mL of SSF, 0.001 mL of CaCl2·2H2O (0.3 M), 0.025 mL of salivary amylase (75 U/mL), and 0.005 mL of H2O were sequentially added, for a total volume of 0.25 mL. The mixture was then incubated in a 37 °C incubator for 2 min.
Briefly, 0.25 mL of the oral digestion mixture was sequentially combined with 0.12 mL of SGF, 0.001 mL of CaCl2·2H2O (0.3 M), 0.048 mL of pepsin (2000 U/mL), 0.060 mL of SGF, 0.011 mL of H2O, and 0.010 mL of HCl (1 M), for a total volume of 0.5 mL. The mixture was then incubated in a 37 °C incubator for 2 h.
A 0.50-mL sample of the gastric digestion mixture was successively combined with 0.195 mL of SIF, 0.001 mL of CaCl2·2H2O (0.3 M), 0.125 mL of trypsin (100 U/mL), 0.100 mL of SIF, and 0.079 mL of H2O. The mixture was then incubated in a 37 °C incubator for 2 h at a pH of 7.0.
After oral, gastric, and intestinal digestion, the digestion mixture was filtered through a 0.22-μm sterile filter. The filtrate was stored at −20 °C for subsequent analysis.
The in vitro simulated digestion experiments of the peptides were conducted in accordance with the method described by Hao et al., with minor modifications ([Hao et al., 2020]). The stability of peptides post-digestion was assessed by RP-HPLC (CAP-CELL PAK C18 AQ S-5, 10 mm × 150 mm column, Shiseido, Tokyo, Japan) with a detection wavelength of 228 nm. The formula for determining the peptide stability was as follows: Stability of peptides%=Pa/Pb×100 where Pa represents the peak area of the digested sample, and Pb represents the peak area of the reference sample.

DPP-IV [6] = conditions: cited from earlier work
[7] = parameters: method as in Yin et al., 2022; conditions: ref Yin et al., 2022; cited from earlier work

CDF
IC50 [1]: 192 µM

EACF
IC50 [1]: 41.1 µM

GPFPILN [GPFPILN]
IC50 (DPP-IV [2]): 198 ± 14.9 µM

GPFPLL [GPFPLL]
DPP-IV inhibitory rate after intestinal digestion (DPP-IV [3]): 31.90 % ± 1.80
IC50 (DPP-IV [2]): 131 ± 10.4 µM
DPP-IV inhibition rate in Caco-2 cells (DPP-IV [4]): 46.53 % ± 3.48
cytotoxicity to Caco-2 cells (Caco-2 cells): Neither GL-6 nor LY-5 exhibited significant cytotoxicity
Oral-gastric digestion (stability of peptide) [5]: 96.37%
Oral-gastric-intestinal digestion (stability of peptide) [5]: 69.48%
decrease of stability after intestinal digestion [5]: 26.89%
remaining at 2 min [5]: 99.6%

IPYWTY
mode of inhibition of DPP-IV (DPP-IV [6]; pea protein peptide, ref Zhang, Zhu, et al., 2022): competitive inhibition

LLSPP
stability after intestinal digestion [7]: 80%

LPFYPN
mode of inhibition of DPP-IV (DPP-IV [6]; coix seed protein peptide, ref Zhang et al., 2023): competitive inhibition

LPVGP
stability after intestinal digestion [7]: 80%

LPYPY [LPYPY]
DPP-IV inhibitory rate after intestinal digestion (DPP-IV [3]): 39.37 % ± 0.90
IC50 (DPP-IV [2]): 180 ± 18.9 µM
DPP-IV inhibition rate in Caco-2 cells (DPP-IV [4]): 65.98 % ± 2.87
cytotoxicity to Caco-2 cells (Caco-2 cells): Neither GL-6 nor LY-5 exhibited significant cytotoxicity
Oral-gastric digestion (stability of peptide) [5]: 97.60%
Oral-gastric-intestinal digestion (stability of peptide) [5]: 81.99%
decrease of stability after intestinal digestion [5]: 15.61%
remaining at 2 min [5]: 99.5%

PPGIPYW
mode of inhibition of DPP-IV (DPP-IV [6]; chickpea protein peptide, ref Zan et al., 2023): competitive inhibition
